Calls of active or inactive are those of the source. No rule for the calls is given here.
Target: Peptidyl-prolyl cis-trans isomerase FKBP1A (Homo sapiens) (UniProt P62942)
Assay: small-molecule binding to FKBP12 – biophysical, NMR detection (AID 608)
Details: purified FKBP12

Chain of Peptidyl-prolyl cis-trans isomerase FKBP1A (Homo sapiens) (P62942 whole entry, looked up): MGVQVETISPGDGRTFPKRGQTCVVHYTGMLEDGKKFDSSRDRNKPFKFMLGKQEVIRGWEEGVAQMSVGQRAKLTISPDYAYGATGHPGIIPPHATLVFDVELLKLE

SMILES	Kd
O=C(O)C1CSC2(CCCCC2)N1 (stereo unspecified)	> 4 mM (inactive)
O=C(O)CC(O)c1nc2ccccc2[nH]1 (stereo unspecified)	> 4 mM (inactive)
S=C(Nc1ccc2nccnc2c1)N1CCOCC1	> 4 mM (inactive)
O=C1CN2C(=N1)N(Cc1ccccc1)c1ccccc12	> 4 mM (inactive)
O=C(O)CCC(=O)c1c[nH]c2ccccc12	> 4 mM (inactive)
O=C1NC(=O)C(C(C[N+](=O)[O-])c2ccc(O)cc2)C(=O)N1 (stereo unspecified)	> 4 mM (inactive)
Cc1cc(C)c(C#N)c(N2CCCC2)n1	> 4 mM (inactive)
CN1CCN(C2CCN(Cc3ccccc3)CC2)CC1	> 4 mM (inactive)
O=c1oc(-c2ccccc2)nc2c1cnn2-c1ccccc1	> 4 mM (inactive)
COC(=O)CSc1nc(N)cc(=O)[nH]1	> 4 mM (inactive)
S=C(CN1CCCC1=S)N1CCOCC1	> 4 mM (inactive)
Cc1ccc(C(=O)N2CCC(C(=O)O)CC2)cc1	> 4 mM (inactive)
Cc1cc(C)c2nncn2n1	> 4 mM (inactive)
CC(C)(C)C(=O)Nc1ncc(C(F)(F)F)cc1Cl	> 4 mM (inactive)
c1ccc(Cn2c(Nn3cnnc3)nc3ccccc32)cc1	> 4 mM (inactive)
Cc1ncc(C[n+]2csc3ccccc32)c(N)n1	> 4 mM (inactive)
CN=C(C)c1c(O)n(C)c(=S)n(C)c1=O	> 4 mM (inactive)
O=c1c(O)c(-c2ccccc2)oc2cc(O)ccc12	> 4 mM (inactive)
O=c1[nH]c(=S)[nH]c2c1CCC2	> 4 mM (inactive)
NC(=O)/C=C/C(=O)Nc1ccccc1	> 4 mM (inactive)
CCC(C)C(=O)O[C@H]1[C@H](O)C2C(CN3CC(C)CCC3[C@@]2(C)O)C2C[C@]34O[C@]5(O)C(OC(=O)C(C)(O)C(C)O)CC[C@@]3(C)C5C(OC(C)=O)[C@@H](OC(C)=O)C4[C@@]21O (stereo partly specified)	> 4 mM (inactive)

SMILES	Kd
CCOC(=O)c1csc(C2COc3ccccc3O2)n1 (stereo unspecified)	> 4 mM (inactive)
CC(O)C(=O)N/N=C/c1cccs1 (stereo unspecified)	> 4 mM (inactive)
CC(=O)Oc1ccc(/C=C/c2cc(OC(C)=O)cc(OC(C)=O)c2)cc1	> 4 mM (inactive)
O=[N+]([O-])c1c[n+]([O-])n(-c2ccccc2)n1	> 4 mM (inactive)
Cc1cc(O)cc(O)c1C(=O)O	> 4 mM (inactive)
CN(C)CCNC(CC(=O)Nc1ccccc1)C(=O)O (stereo unspecified)	> 4 mM (inactive)
O=c1[nH]c(CN2CCN(CCO)CC2)nc2ccccc12	> 4 mM (inactive)
OCc1ccc(-n2cncn2)cc1	> 4 mM (inactive)
Cn1cc(Cl)c(C(=O)Nc2ccncc2)n1	> 4 mM (inactive)
Cc1ccc(-c2c(C)n([O-])c(C)c(C)[n+]2=O)cc1	> 4 mM (inactive)
CCC(=O)Oc1ccc(N2C(=O)CCC2=O)cc1	> 4 mM (inactive)
O=C(NN1CCOCC1)c1ccccc1F	> 4 mM (inactive)
O=c1[nH]nnc2sc3c(c12)CCCC3	> 4 mM (inactive)
O=C1NCCCC1C(=O)N1CCCCC1 (stereo unspecified)	> 4 mM (inactive)
Cc1cc(NC(=O)c2ccc3c(c2)OCO3)no1	> 4 mM (inactive)
O=C(O)CNC(=O)c1ccccc1Cl	> 4 mM (inactive)
c1ccc(-n2cnnc2)nc1	> 4 mM (inactive)
CC(=O)NC(=S)Nc1nc2ccccc2n1C(C)=O	> 4 mM (inactive)
OCCOc1ccc(C2=NCCO2)cc1	> 4 mM (inactive)
O=C(O)c1sccc1-n1cccc1	> 4 mM (inactive)
OCc1ccc(Oc2ccccc2)nc1	> 4 mM (inactive)

SMILES	Kd
Cc1ccc(N)nc1	> 4 mM (inactive)
NS(=O)(=O)c1ccc(N=Cc2ccc[nH]2)cc1	> 4 mM (inactive)
COc1nc(C)ccc1-c1noc(-c2ccco2)n1	> 4 mM (inactive)
COc1ccccc1NS(=O)(=O)c1c[nH]c(=O)[nH]c1=O	> 4 mM (inactive)
CN(C)C(=O)Oc1ccc(-c2nnco2)cc1	> 4 mM (inactive)
CCCOn1nnnc1-c1ccccc1	> 4 mM (inactive)
CC1(C)O[C@H]2[C@H](O)C[C@](O)(C(N)=O)C[C@H]2O1	> 4 mM (inactive)
CC(=O)N=c1cccc(NC(C)=O)n1O	> 4 mM (inactive)
O=C1NC(=Nc2ccc(O)cc2)S/C1=C/c1ccco1	> 4 mM (inactive)
C/C=C(\C)c1nnc(NC(=O)c2ccco2)s1	> 4 mM (inactive)
O=C(O)CCC(=O)Nc1ccccc1F	> 4 mM (inactive)
NC(=O)c1cn(-c2ccccc2)nc1-c1cccnc1	> 4 mM (inactive)
COc1cccc(/C=N/N=C2/NC(=O)CS2)c1	> 4 mM (inactive)
Nc1nnc(C(F)(F)F)s1	> 4 mM (inactive)
NC(=O)c1ccccc1N1CCCCC1	> 4 mM (inactive)
NS(=O)(=O)c1ccc(NC(=O)c2cccs2)cc1	> 4 mM (inactive)
O=C(Nc1ccon1)c1ccc(Cl)s1	> 4 mM (inactive)
CC(C)=CC(=O)Nc1ccc(S(N)(=O)=O)cc1	> 4 mM (inactive)
NC(=O)CCn1c(=O)oc2ccccc21	> 4 mM (inactive)
